45 compounds from US11053253B2, “Macrocyclic compounds for treatment of medical disorders” (Achillion Pharmaceuticals, Inc., priority 2017, dated 2021) can be followed below.

The test addresses Human Factor D (Homo sapiens (Human), UniProt P00746). Description: Human Factor D Assay. It is filed as biochemical. Conditions: Human Factor D 80 nM, substrate Z-L-Lys-SBzl, DTNB, A405; read-out: IC50 (Stars). As for the experimental part:
Example 2. Human Factor D Assay
Human Factor D (purified from human serum, Complement Technology, Inc.) at 80 nM final concentration is incubated with test compound at various concentrations for 5 min at room temperature in 50 mM Tris, 1M NaCl, pH 7.5. A synthetic substrate Z-L-Lys-SBzl and DTNB (Ellman's reagent) are added to final concentrations of 100 µM each. Absorbance at 405 nm (A405) is recorded at 30 second intervals for 30 minutes using a microplate spectrophotometer. IC50 values are calculated by nonlinear regression of Complement Factor D reaction rates as a function of test compound concentration.

SMILES strings stand for the structures.

Human Factor D, sequence (P00746 26-253): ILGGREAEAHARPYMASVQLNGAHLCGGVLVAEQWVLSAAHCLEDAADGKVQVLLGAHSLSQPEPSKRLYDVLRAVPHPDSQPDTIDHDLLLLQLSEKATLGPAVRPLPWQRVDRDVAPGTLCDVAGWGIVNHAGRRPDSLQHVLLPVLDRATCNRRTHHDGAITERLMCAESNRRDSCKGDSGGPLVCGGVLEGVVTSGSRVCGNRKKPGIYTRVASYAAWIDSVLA

With `CC(=O)c1nn(CC(=O)N2[C@H]3C[C@@]4(C=CCCC5=NN=C(Cc6ccc(Br)nc6NC3=O)O5)C[C@@H]24)c2cnc(-c3cnc(C)nc3)cc12` [Compound T-47], the IC50 is less than 1 µM.
Consider `CC(=O)c1nn(CC(=O)N2[C@H]3C[C@@]4(C=CCCCCCCc5ccc(Br)nc5NC3=O)C[C@@H]24)c2ccc(-c3cnc(C)nc3)cc12` [Compound T-48], for which the IC50 is less than 1 µM.
`CC(=O)c1nn2c3c(cc(-c4cnc(C)nc4)cc13)CCCCCCC=Cc1cn(nn1)C[C@@]13C[C@@H](C(=O)Nc4nc(Br)ccc4C)N(C(=O)C2)[C@@H]1C3` [Compound T-49]: the IC50 was less than 1 µM.
For `CC(=O)c1nn2c3c(cc(-c4cnc(C)nc4)cc13)C=CCCCCC(=O)NC[C@@]13C[C@@H](C(=O)Nc4nc(C(F)(F)F)ccc4C)N(C(=O)C2)[C@@H]1C3` [Compound T-51] the value was less than 1 µM.
Turning to `CC(=O)c1nn2c3c(cc(-c4cnc(C)nc4)cc13)CCCCCCCCc1cn(nn1)C[C@@]13C[C@@H](C(=O)Nc4nc(Br)ccc4C)N(C(=O)C2)[C@@H]1C3` [Compound T-53], the half-maximal inhibitory concentration (IC50) is less than 1 µM.
For `CC(=O)c1nn(CC(=O)N2[C@H]3C[C@]4(C[C@@H]24)CN(C)CCCCC=CCc2ccc(Br)nc2NC3=O)c2cnc(-c3cnc(C)nc3)cc12` [Compound T-56] the value was less than 1 µM; for `CC(=O)c1nn(CC(=O)N2[C@H]3C[C@]4(C[C@@H]24)CN(C)CCCC=CCc2ccc(Br)nc2NC3=O)c2cnc(-c3cnc(C)nc3)cc12` [Compound T-57], less than 1 µM; for `CC(=O)c1nn2c3c(cc(-c4cnc(C)nc4)cc13)C=CCCCCCN(C)C[C@@]13C[C@@H](C(=O)Nc4nc(Br)ccc4C)N(C(=O)C2)[C@@H]1C3` [Compound T-58], less than 1 µM.
To `CC(=O)c1nn(CC(=O)N2[C@H]3C[C@@]4(C=CCCCCCN(C)Cc5ccc(Br)nc5NC3=O)C[C@@H]24)c2c(CF)cc(-c3cnc(C)nc3)cc12` [Compound T-59] belongs less than 1 µM; to `CC(=O)c1nn(CC(=O)N2[C@H]3C[C@]4(C[C@@H]24)CN(C)CCCCC=CCc2ccc(Br)nc2NC3=O)c2c(C)cc(-c3cnc(C)nc3)cc12` [Compound T-60], less than 1 µM.
Consider `CC(=O)c1nn(CC(=O)N2[C@H]3C[C@]4(C[C@@H]24)CN(C)CCCCC=CCc2ccc(Br)nc2NC3=O)c2c(CF)cc(-c3cnc(C)nc3)cc12` [Compound T-62], for which the IC50 was less than 1 µM.
On to `CC(=O)c1nn(CC(=O)N2[C@H]3C[C@]4(C[C@@H]24)CN(C)CCCCC=CCc2ccc(Br)nc2NC3=O)c2ccc(-c3cnc(C)nc3)cc12` [Compound T-64], for which the IC50 was less than 1 µM.
With `CC(=O)c1nn(CC(=O)N2[C@H]3C[C@]4(C[C@@H]24)CN(C)CCCC=CCc2ccc(Br)nc2NC3=O)c2ccc(-c3cnc(C)nc3)cc12` [Compound T-65], the IC50 was less than 1 µM.
As for `C=C1COCc2ccc(Br)nc2NC(=O)[C@@H]2C[C@]3(C[C@H]3N2C(=O)Cn2nc(C(C)=O)c3cc(-c4cnc(C)nc4)ccc32)Cn2cc1cn2` [Compound T-66], the IC50 was less than 1 µM.
As for `CC(=O)c1nn(CC(=O)N2[C@H]3C[C@]4(C[C@@H]24)Cn2ccc(n2)/C=C\COCc2ccc(Br)nc2NC3=O)c2ccc(-c3cnc(C)nc3)cc12` [Compound T-69], the IC50 was less than 1 µM.
With `CC(=O)c1nn(CC(=O)N2[C@H]3C[C@]4(C[C@@H]24)Cn2ccc(n2)/C=C\COCc2ccc(Br)nc2NC3=O)c2cnc(-c3cnc(C)nc3)cc12` [Compound T-70], the half-inhibitory concentration (IC50) is less than 1 µM.
Regarding `CC(=O)c1nn(CC(=O)N2[C@H]3C[C@]4(C[C@@H]24)CN(C)CCCCCCCc2ccc(Br)nc2NC3=O)c2c(C)cc(-c3cnc(C)nc3)cc12` [Compound T-71], the IC50 is less than 1 µM.
As for `CC(=O)c1nn(CC(=O)N2[C@H]3C[C@]4(C[C@@H]24)CN(C)CCCCCCc2ccc(Br)nc2NC3=O)c2c(C)cc(-c3cnc(C)nc3)cc12` [Compound T-72], the IC50 is less than 1 µM.
To `Cc1ncc(-c2cc(CF)c3c(c2)c(C=O)nn3CC(=O)N2[C@H]3C[C@]4(C[C@@H]24)CN(C)CCCCCCCc2ccc(Br)nc2NC3=O)cn1` [Compound T-74] belongs less than 1 µM; to `CC(=O)c1nn(CC(=O)N2[C@H]3C[C@]4(C[C@@H]24)CN(C)CCCCCCCc2ccc(Br)nc2NC3=O)c2cnc(-c3cnc(C)nc3)cc12` [Compound T-75], less than 1 µM; to `CC(=O)c1nn(CC(=O)N2[C@H]3C[C@]4(C[C@@H]24)CN(C)CCCCCCc2ccc(Br)nc2NC3=O)c2cnc(-c3cnc(C)nc3)cc12` [Compound T-76], less than 1 µM.
Consider `CC(=O)c1nn(CC(=O)N2[C@H]3C[C@@]4(COCC=CCOCc5ccc(Br)nc5NC3=O)C[C@@H]24)c2c(CF)cc(-c3cnc(C)nc3)cc12` [Compound T-77], for which the IC50 is less than 1 µM.
For `CC(=O)c1nn(CC(=O)N2[C@H]3C[C@@]4(COCCCCOCc5ccc(Br)nc5NC3=O)C[C@@H]24)c2c(CF)cc(-c3cnc(C)nc3)cc12` [Compound T-78] the value was less than 1 µM.
Turning to `CC(=O)c1nn2c3cc(c(-c4cnc(C)nc4)cc13)OCCC/C=C/COC[C@@]13C[C@@H](C(=O)Nc4nc(Br)ccc4C)N(C(=O)C2)[C@@H]1C3` [Compound T-79], the IC50 was less than 1 µM.
For `CC(=O)c1nn2c3cc(c(-c4cnc(C)nc4)cc13)OCCC/C=C\COC[C@@]13C[C@@H](C(=O)Nc4nc(Br)ccc4C)N(C(=O)C2)[C@@H]1C3` [Compound T-80] the value was less than 1 µM; for `CC(=O)c1nn2c3c(cc(-c4cnc(C)nc4)cc13)CC=CCCCC(=O)NC[C@@]13C[C@@H](C(=O)NCc4cccc(Cl)c4F)N(C(=O)C2)[C@@H]1C3` [Compound T-82], less than 1 µM.
In the case of `CC(=O)c1nn2c3c(cc(-c4cnc(C)nc4)cc13)CC=CCCCC(=O)NC[C@@]13C[C@@H](C(=O)Nc4nc(Br)c(F)cc4C)N(C(=O)C2)[C@@H]1C3` [Compound T-84], the IC50 is less than 1 µM.
With `CC(=O)c1nn2c3c(cc(-c4cnc(C)nc4)cc13)CCCCCCC(=O)NC[C@@]13C[C@@H](C(=O)Nc4nc(Br)c(F)cc4C)N(C(=O)C2)[C@@H]1C3` [Compound T-85], the IC50 was less than 1 µM.
As to `CC(=O)c1nn2c3c(cc(-c4cnc(C)nc4)cc13)CCCCCCC(=O)NC[C@@]13C[C@@H](C(=O)NCc4cccc(Cl)c4F)N(C(=O)C2)[C@@H]1C3` [Compound T-86], the IC50 is less than 1 µM.
Take `CC(=O)c1nn(CC(=O)N2[C@H]3C[C@@]4(CCCCCCCOCc5ccc(Br)nc5NC3=O)C[C@@H]24)c2c(CF)cc(-c3cnc(C)nc3)cc12` [Compound T-87]: the IC50 is less than 1 µM.
To `CC(=O)c1nn(CC(=O)N2[C@H]3C[C@@]4(CCCCCCCOCc5ccc(Br)nc5NC3=O)C[C@@H]24)c2cnc(-c3cnc(C)nc3)cc12` [Compound T-88] belongs less than 1 µM; to `CC(=O)c1nn(CC(=O)N2[C@H]3C[C@@]4(CCCC=CCOCc5ccc(Br)nc5NC3=O)C[C@@H]24)c2c(CF)cc(-c3cnc(C)nc3)cc12` [Compound T-89], less than 1 µM; to `CC(=O)c1nn2c3c(cc(-c4cnc(C)nc4)cc13)CCCCCCC(=O)NC[C@@]13C[C@@H](C(=O)Nc4cc(F)cc(Br)n4)N(C(=O)C2)[C@@H]1C3` [Compound T-90], less than 1 µM.
`CC(=O)c1nn2c3c(cc(-c4cnc(C)nc4)cc13)CC=CCCCC(=O)NC[C@@]13C[C@@H](C(=O)Nc4ccn(CC(F)(F)F)n4)N(C(=O)C2)[C@@H]1C3` [Compound T-91]: the IC50 is less than 1 µM.
As for `CC(=O)c1nn2c3c(cc(-c4cnc(C)nc4)cc13)CCCCCCC(=O)NC[C@@]13C[C@@H](C(=O)Nc4ccn(CC(F)(F)F)n4)N(C(=O)C2)[C@@H]1C3` [Compound T-92], the IC50 was less than 1 µM.
For `CC(=O)c1nn2c3c(cc(-c4cnc(C)nc4)cc13)CCCCCCC(=O)N(C)C[C@@]13C[C@@H](C(=O)Nc4nc(C(F)(F)F)ccc4C)N(C(=O)C2)[C@@H]1C3` [Compound T-93] the value was less than 1 µM; for `CC(=O)c1nn2c3c(cc(-c4cnc(C)nc4)cc13)CC=CCCCC(=O)NC[C@@]13C[C@@H](C(=O)NCc4cccc(Cl)c4)N(C(=O)C2)[C@@H]1C3` [Compound T-94], less than 1 µM.
`CC(=O)c1nn2c3c(cc(-c4cnc(C)nc4)cc13)CCCCCCC(=O)NC[C@@]13C[C@@H](C(=O)NCc4cccc(Cl)c4)N(C(=O)C2)[C@@H]1C3` [Compound T-95]: the IC50 was less than 1 µM.
To `CC(=O)N[C@@H]1CC=CCOCc2ccc(Br)nc2NC(=O)[C@@H]2C[C@]3(C[C@H]3N2C(=O)Cn2nc(C(C)=O)c3cc(-c4cnc(C)nc4)ccc32)CN(C)C1=O` [Compound T-96] belongs less than 1 µM; to `CC(=O)c1nn(CC(=O)N2[C@H]3C[C@@]4(CCCCCCCN(C)Cc5ccc(Br)nc5NC3=O)C[C@@H]24)c2c(CF)cc(-c3cnc(C)nc3)cc12` [Compound T-97], less than 1 µM.
To `CC(=O)c1nn(CC(=O)N2[C@H]3C[C@@]4(CCCCCCCN(C)Cc5ccc(Br)nc5NC3=O)C[C@@H]24)c2cnc(-c3cnc(C)nc3)cc12` [Compound T-98] belongs less than 1 µM.
To `CC(=O)c1nn2c3cc(c(-c4cnc(C)nc4)cc13)OCCCCCCCCCC[C@@]13C[C@@H](C(=O)Nc4nc(Br)ccc4C)N(C(=O)C2)[C@@H]1C3` [Compound T-99] belongs less than 1 µM; to `CC(=O)c1nn2c3cc(c(-c4cnc(C)nc4)cc13)OCCCCCCCCC[C@@]13C[C@@H](C(=O)Nc4nc(Br)ccc4C)N(C(=O)C2)[C@@H]1C3` [Compound T-100], less than 1 µM; to `CC(=O)c1nn2c3c(cc(-c4cnc(C)nc4)cc13)CCCCC=CCOC[C@@]13C[C@@H](C(=O)Nc4nc(C(F)(F)F)ccc4C)N(C(=O)C2)[C@@H]1C3` [Compound T-101], less than 1 µM.
Take `CC(=O)c1nn2c3c(cc(-c4cnc(C)nc4)cc13)CCCCCCCOC[C@@]13C[C@@H](C(=O)Nc4nc(C(F)(F)F)ccc4C)N(C(=O)C2)[C@@H]1C3` [Compound T-102]: the concentration for half-maximal inhibition (IC50) is less than 1 µM.
